Several values for one entry are separate records, joined by “and”; a condition that tells them apart may be missing. Identical values can stand only once.
Tests used:
[1] = in vitro; settings: human
Experimental: (§1) First, HepG2 cells were cultured at 37° C. under 5% CO2 atmosphere in a DMEM culture medium containing 10% FBS. Then, the cultured HepG2 cells were seeded on a 24-well plate at a cell density of 3×10^5 cells/well, followed by incubation for 1 day. Then, various concentrations of test substances were added to HepG2 cells, followed by incubation for 24 hours.
(§2) An MTT solution dissolved in PBS at a concentration of 5 mg/mL was diluted to 10% with the culture medium. The solution was dispensed in a volume of 0.5 to 1.0 mL in a 24-well plate and incubated for 4 hours in an incubator.
(§3) After 4 hours of incubation, the culture medium containing the MTT solution was removed, and 1 mL of DMSO was added and was shaken for 10 minutes. Then, absorbance was measured at 540 nm. At this time, as positive controls, the cells were treated with (1) 100 mM ethanol and (2) 100 mM ethanol+100 ppm Silymarin, respectively.
(§4) As a result of the experiment, liver cell viability was quantified. That is, as liver cell viability increases, the liver health improvement effect increases.
(§5) As the absorbance value increases, liver cell viability increases.

[2] = tested on: HepG2 cells; assay: in vitro; settings: human, 24 h, 100 mM
Experimental: as §1, §2, §3, §4, §5

[3] = tested on: THP-1 cells and NK-92 cells; assay: Interferon gamma (IFN-γ) production, ELISA; format: cell-based; settings: positive control
Experimental: To confirm the immune function improvement effect of the plant extracts, the amount of interferon gamma produced in […] and macrophages was measured. First, THP-1 cells, which are macrophages, and NK-92 cells, which are natural killer cells, were suspended in an RPMI (Roswell Park Memorial Institute)-1640 culture medium (for THP-1 cells) and a MEMA (Minimum Essential Media Alpha) culture medium (for NK-92 cells), respectively. The suspended cells were seeded on culture plates (24 wells/96 wells). The plant extracts (sample) diluted to various concentrations were added to the cells. At this time, lipopolysaccharide (LPS) (0.1 to 1 μg/mL) was used as a positive control. The sample-treated cells were placed in a 5% CO2 incubator set to 37° C. and incubated for 24 to 48 hours. Then, the supernatant was taken and used as an analysis sample.
The experiment was performed using an enzyme-linked immunosorbent assay (ELISA) method. After coating a 96-well plate with an IFN-γ primary antibody, 1% bovine serum albumin (BSA) was added to block the remaining space. Then, distilled water (blank), an IFN-γ standard solution, and each sample were added to the wells in an amount of 100 μl and incubated at room temperature for 2 hours. 100 μl of a biotin-bound IFN-γ secondary antibody was added to the wells and incubated at room temperature for 2 hours. 100 μl of avidin-bound horseradish peroxidase (HRP) was added and incubated at room temperature or 37° C. for 30 minutes. 100 μl of a TMB substrate solution was added and incubated at room temperature for 4 to 14 minutes. 50 μl of a stop solution (sulfuric acid) was added to stop the reaction. Absorbance at 450 nm wavelength was measured using an ELISA reader. The IFN-γ content of each sample was calculated based on the absorbance of the standard solution.
In this experiment, the effect of the plant extracts on production of interferon gamma was confirmed. As a result of the experiment, the amount of interferon gamma was quantified. As the level of interferon gamma increases, the degree of improvement in immune function increases.
The absorbance is proportional to the IFN-γ content. In addition, increase in IFN-γ production means that immunity is enhanced, such as promotion of differentiation of T lymphocytes, activation of macrophages, and promotion of production of IgG antibodies in B cells.

Compound | viability at 24 h, 100 mM [1] | Liver health-Cell viability (% of control) [2] | Immunity-IFNg secretion ([3]; 1 ppm) | Immunity-IFNg secretion (% of control) ([3]; 1 ppm) | Immunity-IFNg secretion ([3]; LPS 1 ppm) | Immunity-IFNg secretion (% of control) ([3]; LPS 1 ppm)
CCO [Ethanol] | 68.2% | 68.25 (Ethanol % of control |  |  |  | 
lipopolysaccharide [LPS] |  |  | 964.24 % of control | 964.24 % of control and 964.24 (LPS % of control | 964.24 % of control | 964.24 % of control

Source: US20230125075A1, “Composition Containing Paper Mulberry Extracts” (LG Household & Health Care Ltd., priority 2020, published 2023)
